Test results published in patent US20250152570A1 (AIR FORCE MEDICAL UNIVERSITY, priority 2022, published 2025).

Assays:
KYSE450-IR = assay: CCK8 proliferation of icotinib-resistant strain KYSE450-IR; assay type: cell-based; conditions: for proliferation of KYSE450-IR: 2 μm, CCK8, DMSO blank control
Method: (§1) The CCK-8 cell proliferation kit of Shanghai Taoshu Biotechnology Co., Ltd. was used. • (1) Cell suspension was inoculated in a 96-well plate, 100 μL per well, 2,000 cells per well. • (2) Culture or give drugs according to experimental needs, and treat for an appropriate time. • (3) Add 10 μL of CCK-8 solution to each well and incubate at 37° C. • (4) The absorbance value was determined by selecting a wavelength of 450 nm on the microplate reader. The growth curve was drawn based on time and absorbance value.
(§2) The expression level of EGFR and the sensitivity to icotinib and afatinib in various ESCC cell lines (T1, T10, T11, KYSE150, KYSE450, ECA109, EC9706) were detected. The cell line KYSE450 with high EGFR expression and sensitivity to afatinib (low IC50) was selected. The icotinib and afatinib drug concentration increasing mode of action was used to induce KYSE450 cells to produce drug resistance, and a stable cell line resistant to icotinib and afatinib was obtained. The optimal drug concentration gradient for inducing afatinib obtained from the literature reports and the preliminary experiments before formal induction culture was: 100 nM, 300 nM, 500 nM, 800 nM, 1 μM and 5 μM. The initial induction dose of this experiment was 100 nM, and the highest induction dose was 5 μM. During the induction period, the culture medium containing icotinib and afatinib was replaced every 2 days. When the initial induction dose was induced for two weeks and the cell growth was stable, the drug induction dose began to be doubled, and each dose was maintained for 14 days before reaching the highest induction dose. The drug-resistant cells obtained after 10 months of induction culture were named KYSE450/IR KYSE450/AR cell lines.

KYSE450/AR = assay: CCK8 proliferation of afatinib-resistant strain KYSE450/AR; assay type: cell-based; conditions: FIG. 10
Method: as §1
as §2, with “When the initial induction dose was induced for two weeks and the cell growth was stable, the drug induction dose began to be doubled, and each dose was maintained for 14 days before reaching the highest induction dose. The drug-resistant cells obtained after 10 months of induction culture were named KYSE450/IR KYSE450/AR cell lines.” left out

ECA109 cells [1] = assay: Transwell migration assay, ECA109; assay type: cell-based; conditions: compared with the blank control
Method: (§3) At the same time, BI-D1870 was used as a positive control, and no drug was used as a blank control (Black).
(§4) • (1) Digest cells. Wash once with PBS, resuspend in serum-free medium, and adjust the cell density to 5×10^5/ml. • (2) Add 500 μl of culture medium containing 10% fetal bovine serum to the lower chamber of the 24-well plate. Take 200 μl of cell suspension and add it to the chamber. Note that there are no bubbles between the chamber and the lower culture medium. • (3) Culture routinely for 16-24 h. • (4) Aspirate the culture medium in the chamber, fix the cells in the chamber with anhydrous methanol for 15 min, and rinse with PBS. • (5) Color: Add Gumsa staining solution to the 24-well plate, immerse the membrane in the staining solution for 20 min, and wash with PBS. • (6) Carefully wipe off the cells on the inner layer of the membrane with a cotton swab and air-dry the membrane. • (7) Take pictures under a microscope, count 5 high-power fields, and take the average value.

B16F10 (melanoma) = B16F10 (melanoma) transplant tumor model; assay type: in vivo, C57BL/6 mice; conditions: Selonsertib 15 mg/kg per day i.p.; Anti-PD1 50 μg/kg once every two days; 10 days
Method: (§5) • (1) B16F10 (melanoma) and LLC (Lewis lung cancer) transplant tumor models were constructed in 6-8 week old C57BL/6 mice, with 6 mice in each group. Each mouse was subcutaneously injected with about 1×10^6 B16F10 cells and 5×10^6 LLC cells dissolved in 200 μl sterile PBS. • (2) When the tumor volume reached 150 mm^3, the mice were divided into groups and treated differently. […] The Anti-PD1 used in this experiment was specifically In VivoPlus anti-mouse PD-1 (CD279). • (3) The experimental observation time lasted for 10 days (melanoma) or 20 days (Lewis lung cancer). If the mice were infected or in poor condition, they were treated in time. During the period, the tumor volume was measured every 2 days, and the volume calculation formula was length×width 2×0.5. • (4) At the end of the experiment, the mice were killed, the subcutaneous tumors were removed, photographed, weighed, and counted.

LLC (Lewis lung cancer) = LLC (Lewis lung cancer) transplant tumor model; assay type: in vivo, C57BL/6 mice; conditions: Selonsertib 15 mg/kg per day i.p.; Anti-PD1 50 μg/kg once every two days; 20 days
Method: as §5

ESCC cells = assay: Nude mouse tumor formation experiment, esophageal squamous cell carcinoma; assay type: in vivo, BALB/c nude mice; conditions: intraperitoneally 15 mg/kg or 30 mg/kg per day; 20 days
Method: • (1) Nude mouse tumor formation experiment was performed on 4-6 week old female BALB/c nude mice, with 5 nude mice in each group. Each mouse was subcutaneously injected with about 1×10^6 ESCC cells dissolved in 200 μl sterile PBS. • (2) When the tumor volume reached 150 mm^3, the mice were divided into groups and treated differently. […] If the mice were infected or in poor condition, they were treated in time. During this period, the tumor volume was measured every 3-5 days, and the volume calculation formula was length×width 2×0.5. • (4) At the end of the experiment, the mice were killed, the subcutaneous tumors were removed, photographed, weighed, and counted.

TE10 cells [2] = assay: Transwell migration assay, TE10; assay type: cell-based; conditions: compared with the blank control
Method: as §3, §4

[3] = tested on: RSK4 downstream substrates (P-RPS6, P-GSK3β); assay: Western blot of phosphorylation level of RSK4 downstream substrates; assay type: cell-based; conditions: TE10, ECA109 cells
Method: Western blot was used to detect the effect of phosphorylation level of RSK4 downstream substrates.
(1) Protein extraction, using Kangwei Century RIPA lysis buffer. Place the cell culture flask on ice for 20 minutes, shake it back and forth, and blow it with a pipette. Scrape the cells with a cell scraper, transfer them to an EP tube, and centrifuge them at 4° C. 10-20 μl can be aspirated for protein quantification. Add loading buffer, boil for 5 min, centrifuge at 12000 rpm for 5 min, and store in an ultra-low temperature refrigerator. Tissue protein extraction: Grind in liquid nitrogen, transfer to EP tube after melting, lyse on ice for 20 min, and centrifuge at 4° C.
(2) Protein quantification, use the Kangwei Century BCA quantification kit. Make two replicate wells for each sample, take the average value to make a standard curve and calculate the sample concentration.
(3) Protein electrophoresis, use the Kangwei Century SDS-PAGE gel preparation kit. The separation gel concentration is 8%, and the concentration gel concentration is 5%. The separation gel is 1.5 cm away from the upper edge of the front glass plate and filled with water to seal the gel. Use filter paper to absorb the water sealing liquid, fill the concentrated gel, and insert the comb. The voltage is 100V constant for 1 h30 min until the bromophenol blue runs out and stops electrophoresis.
(4) Transfer to membrane, soak the gel, filter paper, and sponge pad in 4° C. pre-cooled transfer buffer for 10 min, soak the PVDF membrane with methanol for 5 min, and transfer it to the transfer buffer for 10 min after it is fully wetted. Installation The order of transfer clips: black plate, sponge, 3 layers of filter paper, gel, membrane, 3 layers of filter paper, sponge, white plate. Expel bubbles at each step and place the membrane in one go. […]
(8) Luminescence: Use the Kangwei Century Chemiluminescence Detection Kit and scan the detection results with a chemiluminescence imager.
(9) Use Photoshop software to perform semi-quantitative grayscale analysis of the image and calculate the relative expression of the protein.

ECA109 cells [4] = assay: CCK8 cell proliferation, ECA109; assay type: cell-based; conditions: compared with the blank control
From the text: as §3
(§6) The growth curve was drawn based on time and absorbance value.

TE10 cells [5] = assay: CCK8 cell proliferation, TE10; assay type: cell-based; conditions: compared with the blank control
From the text: as §3, §6

C#Cc1cccc(Nc2ncnc3cc4c(cc23)OCCOCCOCCO4)c1 [icotinib]
proliferation of KYSE450-IR (KYSE450-IR): extremely low

Cc1cc(F)c(C(=O)Nc2cccc(-c3nncn3C(C)C)n2)cc1-n1cnc(C2CC2)c1 [Selonsertib, 5-(4-cyclopropyl-1H-imidazol-1-yl)-2-fluoro-N-(6-(4-isopropyl-4H-1,2,4-triazol-3-yl)pyridine-2-yl)-4-methylbenzamide]
KYSE450/AR proliferation (KYSE450/AR; 2 μm, CCK8): basically consistent with those of KYSE450-IR
resistance of esophageal squamous cell carcinoma to afatinib (KYSE450/AR): reverses the resistance
migration of ECA109 (ECA109 cells [1]): can inhibit
proliferation of melanoma (tumor growth) (B16F10 (melanoma)): can inhibit
proliferation of KYSE450-IR (KYSE450-IR): can inhibit
resistance of esophageal squamous cell carcinoma to icotinib (KYSE450-IR; FIG. 9): reverses the resistance
proliferation of Lewis lung cancer (tumor growth) (LLC (Lewis lung cancer)): can inhibit
inhibitory effect on tumor growth compared with the positive control (BI-D1870) (ESCC cells): stronger inhibitory effect on tumor growth at a lower dose
migration of TE10 (TE10 cells [2]): can inhibit
expression of P-GSK3β (ser9) [3]: downregulate
expression of P-RPS6 (S235/S236) [3]: downregulate
phosphorylation of RSK4 downstream substrates ([3]; different concentrations): could inhibit
proliferation of ECA109 (ECA109 cells [4]): can inhibit
proliferation of TE10 (TE10 cells [5]): can inhibit

CC(C)CCN1c2nc(Nc3cc(F)c(O)c(F)c3)ncc2N(C)C(=O)C1C (stereo not shown) [BI-D1870]
migration of ECA109 (ECA109 cells [1]): can inhibit
migration of TE10 (TE10 cells [2]): can inhibit
proliferation of ECA109 (ECA109 cells [4]): can inhibit
proliferation of TE10 (TE10 cells [5]): can inhibit
